Laboratory results reported in ChEMBL document CHEMBL1255168, “1-Aryl-3-(1-acylpiperidin-4-yl)urea inhibitors of human and murine soluble epoxide hydrolase: structure-activity relationships, pharmacokinetics, and reduction of inflammatory pain” (J Med Chem, 2010).

Experiments:
[1] = biological target: T1, Bifunctional epoxide hydrolase 2 (Homo sapiens, UniProt P34913)
T1 sequence (P34913 whole entry): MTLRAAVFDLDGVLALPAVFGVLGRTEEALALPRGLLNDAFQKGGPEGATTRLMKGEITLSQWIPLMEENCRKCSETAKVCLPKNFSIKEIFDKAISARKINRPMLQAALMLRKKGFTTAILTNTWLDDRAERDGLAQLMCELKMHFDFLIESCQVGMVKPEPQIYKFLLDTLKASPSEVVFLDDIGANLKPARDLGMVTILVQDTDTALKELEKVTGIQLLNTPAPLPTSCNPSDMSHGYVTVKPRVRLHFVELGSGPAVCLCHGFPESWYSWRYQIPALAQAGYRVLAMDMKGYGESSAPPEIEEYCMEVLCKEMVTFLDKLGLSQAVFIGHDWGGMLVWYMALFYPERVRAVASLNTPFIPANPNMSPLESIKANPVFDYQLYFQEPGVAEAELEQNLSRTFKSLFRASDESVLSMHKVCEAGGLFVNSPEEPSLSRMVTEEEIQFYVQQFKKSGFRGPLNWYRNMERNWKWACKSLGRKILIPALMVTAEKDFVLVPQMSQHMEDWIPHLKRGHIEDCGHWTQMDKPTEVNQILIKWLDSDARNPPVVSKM
Description: Inhibition of human recombinant soluble epoxide hydrolase by fluorescence assay

[2] = biological target: T2, Bifunctional epoxide hydrolase 2 (Mus musculus, UniProt P34914)
T2 sequence (P34914 whole entry): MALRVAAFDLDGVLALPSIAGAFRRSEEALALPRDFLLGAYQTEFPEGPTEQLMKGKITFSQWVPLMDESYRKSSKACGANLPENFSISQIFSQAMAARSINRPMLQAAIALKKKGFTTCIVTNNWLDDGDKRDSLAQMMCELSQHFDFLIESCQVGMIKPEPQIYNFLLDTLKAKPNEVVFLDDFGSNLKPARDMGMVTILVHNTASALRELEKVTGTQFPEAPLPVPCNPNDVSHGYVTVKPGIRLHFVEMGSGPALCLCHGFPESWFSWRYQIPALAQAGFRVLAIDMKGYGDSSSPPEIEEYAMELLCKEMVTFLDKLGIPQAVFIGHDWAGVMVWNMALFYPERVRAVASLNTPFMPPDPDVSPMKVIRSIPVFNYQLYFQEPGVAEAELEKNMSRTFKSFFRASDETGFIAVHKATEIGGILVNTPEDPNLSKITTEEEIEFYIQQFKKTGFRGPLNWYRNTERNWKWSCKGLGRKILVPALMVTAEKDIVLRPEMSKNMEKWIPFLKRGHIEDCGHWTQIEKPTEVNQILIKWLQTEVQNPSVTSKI
Description: Inhibition of mouse recombinant soluble epoxide hydrolase by fluorescence assay

IC50 [1] [nM] | IC50 [2] [nM] | SMILES
140 | 64 | CCC(=O)N1CCC(NC(=O)Nc2ccc(C(=O)OC)cc2)CC1
1.5 | 18 | O=C(Nc1ccc(OC(F)(F)F)cc1)NC1CCN(C(=O)CN2CCN(Cc3ccccc3)CC2)CC1
61 | 100 | CCC(=O)N1CCC(NC(=O)Nc2ccc3c(c2)OCO3)CC1
> 5000 |  | CCC(=O)N1CCC(NC(=O)Nc2cc(OC)c(OC)c(OC)c2)CC1
